“Also recorded” adds a separate entry of the source. Where two headings read alike, the source gives them in different places.
Columns and labels:
BACE-1 = molecular target: T1, BACE-1 (Homo sapiens, UniProt P56817); assay: BACE-1 activity detection kit (fluorescence); format: biochemical; conditions: read-out: Residual activity at 10 µM (%) BACE-1
T1 construct: purchased Sigma-Aldrich

MAO-B [1] = molecular target: T2, MAO-B (Homo sapiens, UniProt P27338); assay: biochemical; conditions: for remaining activity at 10 µM: read-out: Residual activity at 10 µM (%) MAO-B
T2 construct: purchased Sigma-Aldrich
T2 sequence (P27338 1-520): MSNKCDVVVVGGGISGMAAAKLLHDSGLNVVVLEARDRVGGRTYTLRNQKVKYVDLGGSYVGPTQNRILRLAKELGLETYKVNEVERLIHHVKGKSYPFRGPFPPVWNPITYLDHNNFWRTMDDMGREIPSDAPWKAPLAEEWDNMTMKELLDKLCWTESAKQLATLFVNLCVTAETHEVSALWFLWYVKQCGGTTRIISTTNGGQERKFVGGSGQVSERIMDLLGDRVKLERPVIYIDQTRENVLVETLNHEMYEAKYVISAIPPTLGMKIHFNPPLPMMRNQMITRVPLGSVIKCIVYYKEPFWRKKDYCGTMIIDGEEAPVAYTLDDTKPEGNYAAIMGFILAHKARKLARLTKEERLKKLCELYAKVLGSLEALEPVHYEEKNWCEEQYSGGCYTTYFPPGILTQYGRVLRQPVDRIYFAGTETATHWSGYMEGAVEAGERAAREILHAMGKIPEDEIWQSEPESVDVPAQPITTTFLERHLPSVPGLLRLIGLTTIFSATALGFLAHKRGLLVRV
Method: (§1) AChE and BChE inhibitory activities were measured after preincubating enzymes with inhibitors for 15 min before adding substrates (ATCI and BTCI, respectively) and DTNB. AChE activities were assayed as previously described, with slight modification[21],[22]. […] MAO-A and MAO-B activities were determined using a continuous spectrophotometric method, as described previously[23],[24]. […] Reaction rates are expressed as changes in absorbance per min.
(§2) Inhibitory patterns and Ki values were determined using Lineweaver–Burk (LB) plots and secondary plots of LB slopes.

Recombinant human MAO-A = molecular target: T3, Recombinant human MAO-A (Homo sapiens, UniProt P21397); assay: biochemical; conditions: for remaining activity at 10 µM: read-out: Residual activity at 10 µM (%) MAO-A
T3 construct: purchased Sigma-Aldrich
T3 sequence (P21397 1-527): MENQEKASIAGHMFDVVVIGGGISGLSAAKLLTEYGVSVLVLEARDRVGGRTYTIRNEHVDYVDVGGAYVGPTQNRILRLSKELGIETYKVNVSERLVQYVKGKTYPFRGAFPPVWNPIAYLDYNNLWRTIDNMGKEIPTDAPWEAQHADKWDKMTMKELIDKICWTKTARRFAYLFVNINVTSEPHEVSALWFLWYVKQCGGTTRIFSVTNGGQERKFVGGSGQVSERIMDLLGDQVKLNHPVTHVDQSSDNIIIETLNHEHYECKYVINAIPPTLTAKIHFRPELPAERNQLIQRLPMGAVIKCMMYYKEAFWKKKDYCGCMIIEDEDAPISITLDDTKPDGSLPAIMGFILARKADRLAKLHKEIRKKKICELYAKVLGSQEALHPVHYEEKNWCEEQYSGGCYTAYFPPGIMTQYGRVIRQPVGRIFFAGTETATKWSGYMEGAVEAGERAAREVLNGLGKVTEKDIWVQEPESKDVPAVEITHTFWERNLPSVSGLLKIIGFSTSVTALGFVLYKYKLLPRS
Method: as §1, §2

BChE (equine serum) = molecular target: T4, BChE (equine serum) (Equus caballus, UniProt P81908); assay: biochemical; conditions: for remaining activity at 10 µM: read-out: Residual activity at 10 µM (%) BChE
T4 construct: BChE (equine serum); purchased Sigma-Aldrich; host or cells: equine serum
T4 sequence (P81908 whole entry): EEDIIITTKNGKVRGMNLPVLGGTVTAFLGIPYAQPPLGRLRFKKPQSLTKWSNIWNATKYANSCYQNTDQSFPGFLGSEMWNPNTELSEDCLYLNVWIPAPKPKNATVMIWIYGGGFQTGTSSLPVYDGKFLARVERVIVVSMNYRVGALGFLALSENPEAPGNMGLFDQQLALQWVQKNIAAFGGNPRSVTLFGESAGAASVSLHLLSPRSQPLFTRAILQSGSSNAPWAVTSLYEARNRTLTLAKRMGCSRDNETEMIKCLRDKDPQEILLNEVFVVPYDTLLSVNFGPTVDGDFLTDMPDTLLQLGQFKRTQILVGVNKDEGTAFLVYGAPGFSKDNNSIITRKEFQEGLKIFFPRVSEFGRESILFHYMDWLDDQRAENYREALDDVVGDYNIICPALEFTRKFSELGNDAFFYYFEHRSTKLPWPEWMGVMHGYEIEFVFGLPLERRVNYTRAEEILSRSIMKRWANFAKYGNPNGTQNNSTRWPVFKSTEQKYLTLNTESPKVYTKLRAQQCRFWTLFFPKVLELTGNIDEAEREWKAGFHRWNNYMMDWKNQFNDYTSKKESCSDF
Method: as §1, with “min. […]” for “min.”

[2] = molecular target: AChE (Type VI-S from Electrophorus electricus) (Electrophorus electricus, UniProt O42275); assay: biochemical; conditions: for SI: IC50 for BChE divided by IC50 for AChE; for remaining activity at 10 µM: read-out: Residual activity at 10 µM (%) AChE; for inhibition at 10 µM: read-out: Inhibition of AChE
Chain of AChE (Type VI-S from Electrophorus electricus) (O42275 24-633): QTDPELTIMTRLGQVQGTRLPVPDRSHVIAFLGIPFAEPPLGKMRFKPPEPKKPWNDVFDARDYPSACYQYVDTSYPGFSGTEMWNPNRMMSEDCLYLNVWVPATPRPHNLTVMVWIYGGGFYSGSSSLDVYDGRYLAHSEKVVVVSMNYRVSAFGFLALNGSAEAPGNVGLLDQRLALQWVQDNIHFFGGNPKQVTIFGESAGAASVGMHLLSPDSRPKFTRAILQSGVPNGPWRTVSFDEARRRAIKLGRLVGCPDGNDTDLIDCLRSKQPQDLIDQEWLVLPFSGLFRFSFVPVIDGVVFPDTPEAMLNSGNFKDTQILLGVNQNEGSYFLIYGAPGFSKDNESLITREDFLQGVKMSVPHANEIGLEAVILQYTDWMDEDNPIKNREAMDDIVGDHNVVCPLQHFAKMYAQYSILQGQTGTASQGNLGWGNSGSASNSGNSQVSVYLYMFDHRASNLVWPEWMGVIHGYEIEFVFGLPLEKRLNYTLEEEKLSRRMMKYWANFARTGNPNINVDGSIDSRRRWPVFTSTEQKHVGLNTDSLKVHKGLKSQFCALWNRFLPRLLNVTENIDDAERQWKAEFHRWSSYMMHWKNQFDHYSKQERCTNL
Method: as §1, with “min. […]” for “min.”

MAO-B [3] = molecular target: T2, MAO-B; assay: Kinetics of MAO-B inhibition (Lineweaver-Burk and secondary plots); format: biochemical; conditions: for Mode of MAO-B inhibition: LB plots
Method: as §2

AChE [4] = molecular target: T5, AChE (Electrophorus electricus, UniProt O42275); assay: Kinetics of AChE inhibition (Lineweaver-Burk and secondary plots); format: biochemical; conditions: for Mode of AChE inhibition: LB plots
T5 sequence (O42275 24-633): as above
Method: as §2
Substrate concentrations ranged from 0.05 to 1.0 mM. […] Initial reaction rates are expressed as increases in absorbance per min.

[5] = system: Madin-Darby canine kidney (MDCK) cells; assay: Cytotoxicity test, CCK-8 assay; conditions: 50 µM, 24 h, CCK-8
Method: (§3) Madin-Darby canine kidney (MDCK) cells and human acute promyelocytic leukemia (HL-60) cells were obtained from the Korean Cell Line Bank (Seoul, Korea). […] Cultures were maintained at 37 °C under 5% CO2, and media were changed every two days.
(§4) Cell viabilities were determined using the CCK-8 assay. Briefly, MDCK cells or HL-60 cells were resuspended at 1 × 10^5 or 3 × 10^5 cells/mL and suspensions (100 µL) were added to wells of a 96-well plate and incubated in 5% CO2 atmosphere at 37 °C for 24 h. After incubation, 100 µL of each medium was treated with compounds at 1, 3, 10, 30, or 50 µM and incubated in 5% CO2 at 37 °C for 24 h. CCK-8 (10 µL/well) was then added to 100 µL aliquots from each cell and incubated 2–4 h. Absorbances were measured at 450 nm using a microplate reader (Versamax, Molecular Devices, San Jose, CA, USA).
(§5) Both cell lines were treated with each compound (at 1, 3, 10, 30, or 50 µM) for 24 h. Culture supernatants were then removed and CCK-8 was added. […] Data are expressed as the means ± SDs of triplicate experiments.

[6] = system: human acute promyelocytic leukemia (HL-60) cells; assay: Cytotoxicity test, CCK-8 assay; conditions: 50 µM, 24 h, CCK-8
Method: as §3, §4, §5

MAO-B [7] = molecular target: T2, MAO-B; assay: Reversibility of MAO-B inhibition by dialysis; format: biochemical
Method: (§6) After preincubating three compounds or reference inhibitors with enzymes for 15 min, residual activities of undialyzed (AU) and dialyzed (AD) samples were expressed as percentages of those of non-inhibitor treated controls. Reversibilities were assessed using AU and AD values and compared with those of reference compounds.
(§7) After preincubating the compounds with enzymes for 15 min, the mixtures were dialyzed for 6 h with two buffer changes. Results are the averages of duplicate or triplicate experiments.

AChE [8] = molecular target: T5, AChE; assay: Reversibility of AChE inhibition by dialysis; format: biochemical
Method: as §6, §7

[9] = Cytotoxicity test, CCK-8 assay
Method: as §3, §4, §5

AChE [10] = conditions: cited from earlier work
MAO-B [11] = conditions: rat brain mitochondrial fractions; cited from earlier work
MAO-B [12] = conditions: ref 22; cited from earlier work
[13] = secondary plots of LB slopes, substrate 0.05-1.0 mM, read-out: Ki for AChE

T1 sequence (P56817 46-457): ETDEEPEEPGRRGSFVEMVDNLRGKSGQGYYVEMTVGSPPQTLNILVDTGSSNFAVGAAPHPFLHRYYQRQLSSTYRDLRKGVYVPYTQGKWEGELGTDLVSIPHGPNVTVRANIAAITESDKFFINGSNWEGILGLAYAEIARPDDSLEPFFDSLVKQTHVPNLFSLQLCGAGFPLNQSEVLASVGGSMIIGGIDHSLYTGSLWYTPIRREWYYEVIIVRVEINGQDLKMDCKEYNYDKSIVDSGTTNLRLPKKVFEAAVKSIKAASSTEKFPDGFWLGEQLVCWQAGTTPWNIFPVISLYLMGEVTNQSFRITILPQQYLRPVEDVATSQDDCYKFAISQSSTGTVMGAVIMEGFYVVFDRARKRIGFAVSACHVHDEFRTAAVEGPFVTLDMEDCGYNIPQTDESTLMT

SMILES	remaining activity at 10 µM (BACE-1) [%]	IC50 (MAO-B [1]; read-out: IC50 (µM) MAO-B) [µM]	remaining activity at 10 µM (MAO-B [1]) [%]	IC50 (Recombinant human MAO-A; read-out: IC50 (µM) MAO-A) [µM]	remaining activity at 10 µM (Recombinant human MAO-A) [%]	IC50 (BChE (equine serum)) [µM]	remaining activity at 10 µM (BChE (equine serum)) [%]	IC50 [2] [µM]	SI [2]	remaining activity at 10 µM [2] [%]	Mode of MAO-B inhibition (MAO-B [3])	Mode of AChE inhibition (AChE [4])	Ki (AChE [4]; [13]) [µM]	MDCK cell viability [5]	HL-60 cell viability [6]	Reversibility of MAO-B inhibition (MAO-B [7])	Reversibility of AChE inhibition (AChE [8])	inhibition at 10 µM (MAO-B [1]) [%]	inhibition at 10 µM [2] [%]	other results
O=C(OCc1cc(O)c(O[C@@H]2O[C@H](CO)[C@@H](O)[C@H](O)[C@H]2O)c(O)c1)c1cc(O)c(O)c(Oc2c(C(=O)OCc3cc(O)c(O[C@@H]4O[C@H](CO)[C@@H](O)[C@H](O)[C@H]4O)c(O)c3)cc(O)c(O)c2O)c1 [Compound 1, chestanin]	78.9 ± 0.3	> 40	67.2 ± 8.1	> 40	91.7 ± 1.6	> 40	96.2 ± 3.9	37 ± 3	> 1.1	72.5 ± 2.1	–	–	–	–	–	–	–	–	–	–
COc1cc2c(=O)oc3c(OC)c(O[C@@H]4O[C@H](CO)[C@@H](O)[C@H](O)[C@H]4O)cc4c(=O)oc(c1OC)c2c34 [Compound 2, 4′-O-(β-D-glucopyranosyl)-3,3′,4-tri-O-methylellagic acid]	91.9 ± 1	> 40	60.9 ± 5.2	> 40	91.3 ± 7.9	> 40	90.8 ± 4.2	46.4 ± 2.7	> 0.9	70.5 ± 5	–	–	–	–	–	–	–	–	–	–
COc1cc2c(=O)oc3c(OC)c(O[C@@H]4O[C@@H](C)[C@H](O)[C@@H](O)[C@H]4O)cc4c(=O)oc(c1OC)c2c34 [Compound 3, 4′-O-(α-L-rhamnopyranosyl)-3,3′,4-tri-O-methylellagic acid]	99.7 ± 0.4	7.27 ± 0.16	43.2 ± 3.7	> 40	83 ± 6.3	> 40	83.3 ± 2.1	10.1 ± 0.4	> 4.0	55.4 ± 3.4	competitive	competitively; also recorded: competitive but partly mixed; also recorded: competitive but partially mixed	5.37 ± 0.62	slightly or non-toxic; also recorded: negligible effects; also recorded: non-toxic or slightly toxic	negligible effects; also recorded: non-toxic or slightly toxic	reversible inhibitors	reversibly; also recorded: reversible inhibitors	> 50	~50	Ki (MAO-B [3]; secondary plots of LB slopes, substrate 0.0375-0.6 mM, read-out: Ki for MAO-B): 2.25 ± 0.01 µM
COc1cc2c(=O)oc3c(OC)c(O)cc4c(=O)oc(c1OC)c2c34 [Compound 4, 3,3′,4-tri-O-methylellagic acid]	90.1 ± 0.4	> 40	89.1 ± 4.1	> 40	83.1 ± 4.7	> 40	92.3 ± 2.3	10.7 ± 1	> 3.7	53.2	–	competitively; also recorded: competitive but partly mixed; also recorded: competitive but partially mixed	3.74 ± 0.26	slightly or non-toxic; also recorded: non-toxic or slightly toxic	non-toxic or slightly toxic	–	reversibly; also recorded: reversible inhibitors	–	~50	viability at 24 h, 50 µM ([9]; dog, MDCK cells): 67.9%; viability at 24 h, 50 µM ([9]; human, HL-60 cells): 84.6%
O=c1oc2c(O)c(O)cc3c(=O)oc4c(O)c(O)cc1c4c23 [Compound 5, ellagic acid]	59.1 ± 0.3	–	45.4 ± 4.1	–	99.5 ± 0.7	> 40	96.9 ± 5.8	41.7 ± 2.4	> 1.0	81.5 ± 4.2	competitive	competitively; also recorded: competitive but partly mixed; also recorded: competitive but partially mixed	–	slightly or non-toxic; also recorded: negligible effects; also recorded: non-toxic or slightly toxic	negligible effects; also recorded: non-toxic or slightly toxic	reversible inhibitors	reversibly; also recorded: reversible inhibitors	> 50	–	Ki (MAO-B [3]): 7.51 ± 1.86 µM; IC50 (AChE [10]; ref 43): 133 µM; Ki (AChE [4]): 9.43 ± 2.51 µM; IC50 (MAO-B [11]): 0.412 µM; IC50 (MAO-B [1]): 9.21 ± 0.16 µM; IC50 (Recombinant human MAO-A): > 40 µM
COc1cc(C[C@H](C)[C@H](C)Cc2ccc3c(c2)OCO3)ccc1O [macelignan]	–	–	–	–	–	–	–	–	–	–	–	–	–	–	–	–	–	–	–	IC50 (MAO-B [12]): 7.42 µM; IC50 (AChE [10]; ref 22): 4.16 µM

Source: article PMC8260592 (Scientific Reports, 2021)
